US9187411B2, “Leukotriene B4 antagonist compound” (Eli Lilly and Company, priority 2012, dated 2015)
Like-named read-outs stand apart in the source and are kept apart here.

Target: T1, hBLT2 (Homo sapiens, UniProt Q9NPC1)
T1 construct: expressed in transfected cells; membrane preparation
T1 sequence (Q9NPC1 1-358): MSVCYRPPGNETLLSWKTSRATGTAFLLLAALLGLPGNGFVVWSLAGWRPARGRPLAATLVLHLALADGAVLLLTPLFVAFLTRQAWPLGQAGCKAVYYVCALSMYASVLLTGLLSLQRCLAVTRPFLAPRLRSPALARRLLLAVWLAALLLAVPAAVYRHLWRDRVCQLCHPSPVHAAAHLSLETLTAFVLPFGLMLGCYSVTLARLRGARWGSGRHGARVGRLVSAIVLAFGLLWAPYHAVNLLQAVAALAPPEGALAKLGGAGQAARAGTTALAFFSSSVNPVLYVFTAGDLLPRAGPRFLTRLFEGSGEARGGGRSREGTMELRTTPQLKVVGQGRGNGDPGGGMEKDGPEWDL
Experiment: [3H]-LTB4 binding assay in hBLT2 containing membranes
Details: [3H]-LTB4 displacement, hBLT2/CHO-K1 membranes
Procedure: [^3H]-LTB4 and known BLT1 and BLT2 antagonists are used to generate LTB4 displacement curves and IC50 values for compounds of the present invention. Receptor inhibition by compounds of the present invention is determined relative to BLT1 inhibitor and BLT2 inhibitor reference molecules to obtain percent efficacies.
hBLT2 Test Compound Preparations: For hBLT2 assays, test compounds are prepared in DMSO to make up a 10 mM stock solution. The stock solution is initially diluted 1:10 in Buffer A (50 mM HEPES pH 7.4, 10 mM MgCl2, 10 mM NaCl, 10% glycerol (v/v), 1% BSA (w/v)), followed by 3× serial dilutions in Buffer B (50 mM HEPES pH 7.4, 10 mM MgCl2, 10 mM NaCl, 10% glycerol (v/v), 1% BSA (w/v), 10% DMSO (v/v)) creating a ten-point dilution curve. Final compound concentrations ranging from 300 μM to 15.2 nM are plated in a 96-well round-bottom plate for conducting the in vitro assays. […]
[^3H]-LTB4 (30 μL of 2.8 nM, PerkinElmer NET-852) is aliquoted into each well of a Falcon® 3072 microtiter plate (BD Biosciences). […] The plate is allowed to sit for 16 h and then read on a Packard Instrument Company Topcount® for 1 min. […]

Which IC50 (read-out: absolute IC50) does the source give for `CCCc1c(NC(=O)CC(C)(C)C(=O)[O-])cccc1OCCCOc1cc(O)c(-c2ccc(F)cc2)cc1CC.[Na+]` [Example 2, Sodium 4-[[3-[3-[2-ethyl-4-(4-fluorophenyl)-5-hydroxy-phenoxy]propoxy]-2-propyl-phenyl]amino]-2,2-dimethyl-4-oxo-butanoate] here?
The IC50 was 16.5 µM.

What about the IC50 (read-out: relative IC50) of the same molecule?
The IC50 was 15.4 µM.
